The text below walks through data of ChEMBL document CHEMBL3132769, “Fragment growing to retain or alter the selectivity of anchored kinase hinge-binding fragments” (Medchemcomm, 2014).

In assay [1] the target is T1, Serine/threonine-protein kinase D1 (Homo sapiens) (UniProt Q15139).
T1 sequence (whole entry): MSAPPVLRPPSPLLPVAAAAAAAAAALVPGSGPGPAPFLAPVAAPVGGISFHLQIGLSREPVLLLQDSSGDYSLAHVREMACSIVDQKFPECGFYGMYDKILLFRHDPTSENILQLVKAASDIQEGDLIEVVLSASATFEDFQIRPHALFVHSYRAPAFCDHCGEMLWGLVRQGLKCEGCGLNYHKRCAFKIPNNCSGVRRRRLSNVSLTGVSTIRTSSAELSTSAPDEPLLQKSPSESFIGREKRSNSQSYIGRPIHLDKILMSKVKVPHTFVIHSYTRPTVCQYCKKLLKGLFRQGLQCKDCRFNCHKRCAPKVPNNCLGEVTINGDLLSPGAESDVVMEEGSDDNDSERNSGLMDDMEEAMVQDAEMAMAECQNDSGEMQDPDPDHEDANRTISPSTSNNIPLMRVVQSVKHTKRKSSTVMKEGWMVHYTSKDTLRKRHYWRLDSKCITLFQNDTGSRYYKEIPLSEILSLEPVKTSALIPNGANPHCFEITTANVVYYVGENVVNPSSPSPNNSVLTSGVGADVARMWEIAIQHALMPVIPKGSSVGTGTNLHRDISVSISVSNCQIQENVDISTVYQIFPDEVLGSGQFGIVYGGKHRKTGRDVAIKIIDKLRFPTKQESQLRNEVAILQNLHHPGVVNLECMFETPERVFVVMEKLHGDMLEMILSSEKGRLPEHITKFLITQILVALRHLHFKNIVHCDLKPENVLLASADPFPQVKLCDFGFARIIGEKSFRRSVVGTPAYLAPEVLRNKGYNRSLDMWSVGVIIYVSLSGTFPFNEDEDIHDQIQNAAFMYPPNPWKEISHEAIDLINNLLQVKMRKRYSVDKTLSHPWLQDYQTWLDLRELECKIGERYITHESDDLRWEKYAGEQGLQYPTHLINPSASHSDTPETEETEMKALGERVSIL
Put plainly: Inhibition of human full length PKD1 expressed in baculovirus assessed as substrate phosphorylation using fluorescence-labelled peptides as substrate at 2 uM after 90 mins by microfluidic peptide phosphorylation assay.

Assay [2] deals with Tyrosine-protein kinase ABL1 (Homo sapiens), P00519 [Q252H]. Put plainly: Inhibition of human truncated ABL Q252H mutant expressed in baculovirus assessed as substrate phosphorylation using fluorescence-labelled peptides as substrate at 0.1 uM after 90 mins by microfluidic peptide phosphorylation assay.
Assay [3] has as its target T2, Serine/threonine-protein kinase D2 (Homo sapiens) (UniProt Q9BZL6).
T2 sequence (whole entry): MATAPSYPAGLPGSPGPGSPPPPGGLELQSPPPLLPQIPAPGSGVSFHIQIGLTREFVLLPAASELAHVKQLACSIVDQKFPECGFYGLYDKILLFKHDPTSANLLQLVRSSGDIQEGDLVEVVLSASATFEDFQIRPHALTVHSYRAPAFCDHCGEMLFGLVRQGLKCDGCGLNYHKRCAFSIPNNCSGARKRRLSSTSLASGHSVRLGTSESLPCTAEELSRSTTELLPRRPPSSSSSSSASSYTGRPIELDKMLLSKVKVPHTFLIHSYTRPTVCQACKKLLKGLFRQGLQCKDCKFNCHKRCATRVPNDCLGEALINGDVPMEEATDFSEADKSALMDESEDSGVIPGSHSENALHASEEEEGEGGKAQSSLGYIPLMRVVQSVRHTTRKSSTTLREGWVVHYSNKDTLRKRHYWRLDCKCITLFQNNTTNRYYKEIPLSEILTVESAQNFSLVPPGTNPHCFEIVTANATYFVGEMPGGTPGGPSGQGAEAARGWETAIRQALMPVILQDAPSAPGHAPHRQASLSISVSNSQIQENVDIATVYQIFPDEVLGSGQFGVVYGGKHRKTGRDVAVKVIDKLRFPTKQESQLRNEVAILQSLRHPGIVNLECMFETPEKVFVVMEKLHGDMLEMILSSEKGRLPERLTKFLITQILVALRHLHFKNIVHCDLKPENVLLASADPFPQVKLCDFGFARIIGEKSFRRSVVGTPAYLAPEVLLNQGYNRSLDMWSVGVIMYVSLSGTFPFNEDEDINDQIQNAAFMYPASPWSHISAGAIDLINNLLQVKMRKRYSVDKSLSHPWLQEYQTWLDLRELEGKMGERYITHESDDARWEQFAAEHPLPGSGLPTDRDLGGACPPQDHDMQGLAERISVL
Put plainly: Inhibition of human full length PKD2 expressed in baculovirus assessed as substrate phosphorylation using fluorescence-labelled peptides as substrate at 0.2 uM after 90 mins by microfluidic peptide phosphorylation assay.

Assay [4] has as its target T3, Serine/threonine-protein kinase BRSK2 (Homo sapiens) (UniProt Q8IWQ3).
T3 sequence (whole entry): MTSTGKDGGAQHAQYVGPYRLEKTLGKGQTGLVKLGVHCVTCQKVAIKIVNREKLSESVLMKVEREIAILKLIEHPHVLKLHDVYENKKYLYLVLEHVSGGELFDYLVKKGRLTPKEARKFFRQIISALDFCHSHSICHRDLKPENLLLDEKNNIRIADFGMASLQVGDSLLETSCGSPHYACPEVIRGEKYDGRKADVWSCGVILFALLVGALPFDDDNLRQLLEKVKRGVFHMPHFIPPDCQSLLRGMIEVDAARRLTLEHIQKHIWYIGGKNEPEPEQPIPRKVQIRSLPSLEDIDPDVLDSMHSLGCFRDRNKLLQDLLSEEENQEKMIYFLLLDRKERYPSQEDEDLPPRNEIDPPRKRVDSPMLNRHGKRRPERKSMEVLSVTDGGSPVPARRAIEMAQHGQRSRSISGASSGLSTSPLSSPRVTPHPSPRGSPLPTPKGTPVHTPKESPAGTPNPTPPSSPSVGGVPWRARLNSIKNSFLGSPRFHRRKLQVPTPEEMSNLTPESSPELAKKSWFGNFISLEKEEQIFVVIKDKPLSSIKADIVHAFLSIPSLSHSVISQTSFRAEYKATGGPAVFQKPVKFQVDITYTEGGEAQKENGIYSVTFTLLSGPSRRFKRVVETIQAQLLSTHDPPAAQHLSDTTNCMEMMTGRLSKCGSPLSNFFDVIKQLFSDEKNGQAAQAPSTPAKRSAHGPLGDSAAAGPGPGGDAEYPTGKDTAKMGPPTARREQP
Put plainly: Inhibition of human truncated BRSK2 expressed in baculovirus assessed as substrate phosphorylation using fluorescence-labelled peptides as substrate at 0.2 uM after 90 mins by microfluidic peptide phosphorylation assay.

In assay [5] the target is MAP kinase-activated protein kinase 2 (Homo sapiens) (UniProt P49137). Put plainly: Inhibition of human full length MAPKAPK2 expressed in baculovirus assessed as substrate phosphorylation using fluorescence-labelled peptides as substrate at 0.06 uM after 90 mins by microfluidic peptide phosphorylation assay.
Chain of MAP kinase-activated protein kinase 2 (Homo sapiens) (P49137 whole entry, looked up, the tested form may be a part): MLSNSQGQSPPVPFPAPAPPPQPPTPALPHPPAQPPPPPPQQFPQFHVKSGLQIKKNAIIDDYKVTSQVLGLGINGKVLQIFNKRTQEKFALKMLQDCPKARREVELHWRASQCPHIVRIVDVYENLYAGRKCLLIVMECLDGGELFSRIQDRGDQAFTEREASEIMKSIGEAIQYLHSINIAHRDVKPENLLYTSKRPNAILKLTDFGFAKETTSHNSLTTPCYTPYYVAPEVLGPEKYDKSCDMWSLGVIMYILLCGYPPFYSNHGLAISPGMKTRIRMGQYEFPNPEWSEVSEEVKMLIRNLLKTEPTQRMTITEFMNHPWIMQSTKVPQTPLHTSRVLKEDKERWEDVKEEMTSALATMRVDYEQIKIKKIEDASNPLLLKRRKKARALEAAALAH
In assay [6] the target is Serine/threonine-protein kinase PAK 2 (Homo sapiens) (UniProt Q13177). Put plainly: Inhibition of human truncated PAK2 expressed in Escherichia coli cell assessed as substrate phosphorylation using fluorescence-labelled peptides as substrate at 8 uM after 90 mins by microfluidic peptide phosphorylation assay.
Chain of Serine/threonine-protein kinase PAK 2 (Homo sapiens) (Q13177 whole entry, the tested form may be a part): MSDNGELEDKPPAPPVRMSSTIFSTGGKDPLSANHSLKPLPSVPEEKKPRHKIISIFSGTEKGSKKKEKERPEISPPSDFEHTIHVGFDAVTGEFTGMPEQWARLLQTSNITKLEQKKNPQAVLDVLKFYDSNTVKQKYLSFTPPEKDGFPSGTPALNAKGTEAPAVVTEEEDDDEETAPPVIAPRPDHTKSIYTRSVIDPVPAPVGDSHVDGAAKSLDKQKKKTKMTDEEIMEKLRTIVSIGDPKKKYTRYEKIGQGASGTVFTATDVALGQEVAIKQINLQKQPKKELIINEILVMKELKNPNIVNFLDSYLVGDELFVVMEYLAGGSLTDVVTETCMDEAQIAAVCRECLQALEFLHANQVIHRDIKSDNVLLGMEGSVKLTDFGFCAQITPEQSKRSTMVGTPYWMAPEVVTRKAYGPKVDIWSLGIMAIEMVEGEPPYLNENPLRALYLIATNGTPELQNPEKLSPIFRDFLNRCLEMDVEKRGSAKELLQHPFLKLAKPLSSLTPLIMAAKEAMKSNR

What is called inhibition is the share of the control response that was lost under treatment. As for `NC1CCN(c2ncnc3[nH]ccc23)CC1`, the inhibition in assay [1] worked out at 26%.
`C[C@H](CN(C)C)Oc1nc(Nc2cc3cccc(Cl)c3cn2)cnc1C#N`: the inhibition in assay [2] is 4%.
For `Clc1ccc(C2(c3ccc(-c4ncnc5[nH]cnc45)cc3)CCNCC2)cc1`, the inhibition in assay [3] and in assay [4] was 13% each time.
Regarding `NC1(Cc2ccc(Cl)cc2)CCN(c2ncnc3[nH]ccc23)CC1`, the inhibition in assay [5] came to 0%.
Regarding `NCC1CCN(c2ncnc3[nH]ccc23)CC1`, the inhibition in assay [6] was found to be 24.5%.
